The values that follow come from patent EP0642343B1, “Acridine carboxamides for the treatment of cancer” (XENOVA LIMITED, priority 1992, dated 1993).

Test [1] relates to P388 murine leukaemia (P/ACTD). Kind of test: Sensitivity of multidrug resistant P388 subline in vivo. The procedure: A multidrug resistant subline of P388 murine leukaemia (P/ACTD) was tested for sensitivity to DACA. This line was cross-resistant to actinomycin D, doxo-rubicin, mitoxantrone, etoposide and vincristine. Its resistance to vincristine was overcome by the presence of verapamil (10 µM). It stained for the presence of P-glycoprotein, consistent with the presence of transport-mediated multidrug resistance.

For test [2], the system named is P388 murine leukaemia (P/ACTD). As to conditions: in vitro tests; reported by Schneider et al., Eur. J. Cancer Clin. Oncol. 1988; cited from earlier work.
Test [3] concerns human melanoma cell line designated WADH. Kind of test: Tumour growth delay, human melanoma xenograft in nude mice. As to conditions: tumours 4-7 mm; ip divided dose 2 x 100 mg/kg at 0 and 60 min, repeated after 7 days. In kind it is in vivo, nude (athymic) mice. The method, then: Colon 38 carcinoma was obtained from the Mason Research Institute (Worchester, MA, USA) and was grown in BDF1 hosts. Tumour fragments (1 mm^3) were implanted subcutaneously in anaesthetised mice. Tumours had grown to the appropriate size 9 days after implantation. A melanoma tumour line (WADH) was developed in the Cancer Research Laboratory. Tumour cells were grown in culture and 1 x 10^6 cells were implanted intradermally into the flank of nude (C57BI/J genetic background) mice. Mice were grown under sterile surroundings until tumours were of appropriate size.
Tumours were measured 3x (colon 38) or 2x (xeno-graft) weekly with callipers and tumour volumes calculated as 0.52a^2b, where a and b were the minor and major tumour axes. Tumour growth delays were measured at a time when tumour volumes of treated and control animals had increased by 4-fold.
A further experiment was carried out using human melanoma line, implanted subcutaneously in nude (athymic) mice using an inoculation of one million cells of a human melanoma cell line designated WADH. Treatment was started when the tumours were 4-7 mm in diameter. DACA was administered ip as a divided dose (2 x 100 mg/kg body weight at 0 and 60 min) and a second similar administra-tion (2 x 100 mg/kg) was given after 7 days. A growth delay of 30 days was obtained (Figure 6).
Background: A xenograft is tissue or cells of one species grown in another, often human tumour cells in immunodeficient mice.

The subject of test [4] is other human leukaemia cell lines. As to the kind of experiment: Growth inhibition of leukaemia lines, continuous exposure, MTT staining. As to conditions: range over other human leukaemia cell lines. Type of test: cell-based. The method, then: Tumour cell lines were cultured in 96-well plates. […] Primary cultures were incubated at 37°C in sealed perspex boxes containing a humidified atmosphere of 5% CO2 and 5% O2 in nitrogen for 7 days. 5-Methyl-[^3H]-thymidine (20 Ci.mmol^-1; 0.04 µCi per well), thymidine and 5-fluorodeoxyuridine (each at final concentrations of 0.5 µM) were added in medium to cultures (20 µl per well) 24 h before terminating the cultures.
1989, 81:1088-1092, where growth, as indicated by staining or thymidine incorporation, corresponded to 50% of that of the control cultures.
The effect of DACA on the growth of cultured cells was assessed by continuous drug exposure. […] These values were similar to those of other human leukaemia cell lines, which ranged from 290 to 760 nM (CEM-CCRF, 410 nM; MOLT-4, 290 nM; Daudi, 400 nM; Raji, 370 nM, U937, 590 nM; HL-60, 620 nM; K-562, 760 nM). Four multidrug-resistant cell lines, developed from JL and JB1 by in vitro exposure to increasing concentrations of doxorubicin (LD and B1D) or amsacrine (LA and B1A) (Finlay G.J., et al., J. Natl. Cancer Inst. 1990, 82, 662-667, Snow K., et al., Br. J. Cancer 1991, 63, 17-28) were tested.

Another test concerns B1D. Kind of test: Resistance factor, drug-resistant Jurkat leukaemia subline. Type of test: cell-based, human. As to conditions: B1D (from B1 by exposure to doxorubicin); ratio of IC50 resistant line / parent line. The method, then:
(§1) Tumour cell lines were cultured in 96-well plates. Growth of NCI cell lines was assessed using sulpho-rhodamine B staining (Skehan P., et al., J. Natl. Cancer Inst. 1990, 82, 1107-1112), that of the leukaemia lines with (4,5-dimethylthiazole-2-yl)-2,5-diphenyltetrazolium (MTT) staining (Mosmann T., J. Immun. Methods 1983, 65, 55-63) and that of the primary human tumour material by ^3H-thymidine incorporation (Marshall E.S., et al., J. Natl. Cancer Inst. 1992, 84, 341-344). Primary tumour material was cultured in 96-well plates in which the wells were coated with agarose to inhibit selectively the growth of normal cells. (Marshall E.S., et al., J. Natl. Cancer Inst. 1992, 84, 341-344). Primary cultures were incubated at 37°C in sealed perspex boxes containing a humidified atmosphere of 5% CO2 and 5% O2 in nitrogen for 7 days. 5-Methyl-[^3H]-thymidine (20 Ci.mmol^-1; 0.04 µCi per well), thymidine and 5-fluorodeoxyuridine (each at final concentrations of 0.5 µM) were added in medium to cultures (20 µl per well) 24 h before terminating the cultures. Cells were aspirated on to glass fibre filters using a multiple automated sample harvester (LKB Wallac OY Beta Harvester). The filter discs were washed for 15 seconds with water, dried, and the amount of tritium retained quantified by liquid scintillation.
(§2) IC50 values were defined as in Paull K.D., et al., J. Natl. Cancer Inst. 1989, 81:1088-1092, where growth, as indicated by staining or thymidine incorporation, corresponded to 50% of that of the control cultures. […] Variances of DELTA values were expressed as standard deviations in log10 units. Comparison of DELTA values was made using Pearson correlation coefficients. Resistance factors were defined as the ratios of IC50 values between the resistant line and the parent line. Statistical evaluation was performed either with NCI programmes, with RS/1 software (BBN Research Systems, Cambridge, MA, USA), or with Sigmaplot (Jandel Scientific, San Rafael, CA, USA).
(§3) The effect of DACA on the growth of cultured cells was assessed by continuous drug exposure. […] Four multidrug-resistant cell lines, developed from JL and JB1 by in vitro exposure to increasing concentrations of doxorubicin (LD and B1D) or amsacrine (LA and B1A) (Finlay G.J., et al., J. Natl. Cancer Inst. 1990, 82, 662-667, Snow K., et al., Br. J. Cancer 1991, 63, 17-28) were tested.
(§4) DACA was compared with six other drugs including four topo II poisons, doxorubicin, mitozantrone, etopo-side and amsacrine. […]

Another test relates to LD. The description is as above. In kind it is cell-based, human. As to conditions: LD (from L by exposure to doxorubicin); ratio of IC50 resistant line / parent line. The method, then: as §1, §2, §3, §4
Another test deals with LA. The test is described as above. Type of test: cell-based, human. Particulars: LA (from L by exposure to amsacrine); ratio of IC50 resistant line / parent line. The procedure: as §1, §2, §3, §4
Another test relates to B1A. The description is as above. In kind it is cell-based, human. As to conditions: B1A (from B1 by exposure to amsacrine); ratio of IC50 resistant line / parent line. The procedure:
as §1, §2, §3, §4

SMILES strings stand for the structures. pIC50: −log10 of the molar value.

Consider `CN(C)CCNC(=O)c1cccc2cc3ccccc3nc12` [DACA, N-[2-(dimethylamino)ethyl]acridine-4-carboxamide], for which the “sensitivity of P/ACTD line” value in test [1] is “sensitive”. Also, the “cross-resistance of P/ACTD cells” value in test [2] is “no cross-resistance”. The Growth delay in test [3] turned out to be 30 days. The molecule further had a pIC50 in test [4] of 6.12 to 6.54. For the same molecule, the Resistance factors with B1D is 1.9; in the test with LD, 2.5; in the test on LA, 2.0; in the test with B1A it was 3.9.

For orientation: pIC50 means the IC50 on a negative log10 scale, so that one unit is a factor of ten. Read a low pIC50 as a high IC50.
